Laboratory results from the supplement of paper PMC10307832.

Tests used:
Assay in all cases: relative viability (nuclei count vs DMSO), 5 days (fraction); higher = more cells survive
[1] = system: ABC-1
In short: (§1)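 Relative viability was taken as the ratio of nuclei in treated wells to nuclei in vehicle wells. Lung cancer cell lines in 1536-well plates received compounds by pin tool one day after seeding, either one drug alone or a fixed anchor-drug dose plus five library-drug doses (not always all listed) in √10 steps. Nuclei were counted on 4× images after 5 days of treatment, and values are medians of duplicate plates.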

[2] = system: EMC-BAC-2
In short: as §1

[3] = system: LCLC-97TM1
In short: as §1

[4] = system: NCI-H1355
In short: as §1

[5] = system: NCI-H1666
In short: as §1

[6] = system: NCI-H1755
In short: as §1

[7] = system: NCI-H1793
In short: as §1

[8] = system: NCI-H1944
In short: as §1

[9] = system: NCI-H1975
In short: as §1

[10] = system: NCI-H1993
In short: as §1

[11] = system: NCI-H2009
In short: as §1

[12] = system: NCI-H2126
In short: as §1

[13] = system: NCI-H2170
In short: as §1

[14] = system: NCI-H2347
In short: as §1

[15] = system: NCI-H441
In short: as §1

[16] = system: NCI-H460
In short: as §1

[17] = system: NCI-H520
In short: as §1

[18] = system: NCI-H647
In short: as §1

[19] = system: NCI-H727
In short: as §1

[20] = system: PC-14
In short: as §1

[21] = system: PC-3 [JPC-3]
In short: as §1

[22] = system: SK-LU-1
In short: as §1

[23] = system: SW 1573
In short: as §1

Cc1cnc(-c2cnc(NCCNc3ccc(C#N)cn3)nc2-c2ccc(Cl)cc2Cl)[nH]1 + N=C(N)NC(=N)NCCc1ccccc1 [Phenformin] (partner 250 µM)
relative viability ([1]; first compound 0.08 µM): 0.259
relative viability ([1]; first compound 0.253 µM): 0.246
relative viability ([1]; first compound 0.8 µM): 0.271
relative viability ([1]; first compound 2.53 µM): 0.195
relative viability ([2]; first compound 0.08 µM): 0.578
relative viability ([2]; first compound 0.253 µM): 0.507
relative viability ([2]; first compound 0.8 µM): 0.542
relative viability ([2]; first compound 2.53 µM): 0.467
relative viability ([3]; first compound 0.08 µM): 0.481
relative viability ([3]; first compound 0.8 µM): 0.535
relative viability ([3]; first compound 2.53 µM): 0.462
relative viability ([4]; first compound 0.08 µM): 0.476
relative viability ([4]; first compound 0.253 µM): 0.45
relative viability ([4]; first compound 0.8 µM): 0.479
relative viability ([4]; first compound 2.53 µM): 0.446
relative viability ([5]; first compound 0.08 µM): 0.548
relative viability ([5]; first compound 0.253 µM): 0.563
relative viability ([5]; first compound 0.8 µM): 0.553
relative viability ([5]; first compound 2.53 µM): 0.572
relative viability ([6]; first compound 0.08 µM): 0.633
relative viability ([6]; first compound 0.253 µM): 0.604
relative viability ([6]; first compound 0.8 µM): 0.634
relative viability ([6]; first compound 2.53 µM): 0.572
relative viability ([7]; first compound 0.08 µM): 0.397
relative viability ([7]; first compound 0.253 µM): 0.333
relative viability ([7]; first compound 0.8 µM): 0.355
relative viability ([7]; first compound 2.53 µM): 0.375
relative viability ([8]; first compound 0.08 µM): 0.203
relative viability ([8]; first compound 0.8 µM): 0.221
relative viability ([8]; first compound 2.53 µM): 0.195
relative viability ([9]; first compound 0.08 µM): 0.418
relative viability ([9]; first compound 0.253 µM): 0.405
relative viability ([9]; first compound 0.8 µM): 0.384
relative viability ([9]; first compound 2.53 µM): 0.286
relative viability ([10]; first compound 0.08 µM): 0.493
relative viability ([10]; first compound 0.253 µM): 0.477
relative viability ([10]; first compound 0.8 µM): 0.521
relative viability ([10]; first compound 2.53 µM): 0.535
relative viability ([11]; first compound 0.08 µM): 0.499
relative viability ([11]; first compound 0.253 µM): 0.442
relative viability ([11]; first compound 0.8 µM): 0.489
relative viability ([11]; first compound 2.53 µM): 0.271
relative viability ([12]; first compound 0.08 µM): 0.526
relative viability ([12]; first compound 0.253 µM): 0.533
relative viability ([12]; first compound 0.8 µM): 0.506
relative viability ([12]; first compound 2.53 µM): 0.567
relative viability ([13]; first compound 0.08 µM): 0.422
relative viability ([13]; first compound 0.253 µM): 0.351
relative viability ([13]; first compound 0.8 µM): 0.412
relative viability ([13]; first compound 2.53 µM): 0.348
relative viability ([14]; first compound 0.08 µM): 0.425
relative viability ([14]; first compound 0.253 µM): 0.5
relative viability ([14]; first compound 0.8 µM): 0.397
relative viability ([14]; first compound 2.53 µM): 0.477
relative viability ([15]; first compound 0.08 µM): 0.841
relative viability ([15]; first compound 0.253 µM): 0.756
relative viability ([15]; first compound 0.8 µM): 0.714
relative viability ([15]; first compound 2.53 µM): 0.864
relative viability ([16]; first compound 0.08 µM): 0.551
relative viability ([16]; first compound 0.253 µM): 0.452
relative viability ([16]; first compound 0.8 µM): 0.513
relative viability ([16]; first compound 2.53 µM): 0.41
relative viability ([17]; first compound 0.08 µM): 0.861
relative viability ([17]; first compound 0.253 µM): 0.628
relative viability ([17]; first compound 0.8 µM): 0.542
relative viability ([17]; first compound 2.53 µM): 0.641
relative viability ([18]; first compound 0.08 µM): 0.598
relative viability ([18]; first compound 0.253 µM): 0.362
relative viability ([18]; first compound 0.8 µM): 0.391
relative viability ([18]; first compound 2.53 µM): 0.28
relative viability ([19]; first compound 0.08 µM): 0.488
relative viability ([19]; first compound 0.253 µM): 0.478
relative viability ([19]; first compound 0.8 µM): 0.478
relative viability ([19]; first compound 2.53 µM): 0.597
relative viability ([20]; first compound 0.08 µM): 0.586
relative viability ([20]; first compound 0.253 µM): 0.413
relative viability ([20]; first compound 0.8 µM): 0.568
relative viability ([20]; first compound 2.53 µM): 0.421
relative viability ([21]; first compound 0.08 µM): 0.478
relative viability ([21]; first compound 0.253 µM): 0.474
relative viability ([21]; first compound 0.8 µM): 0.508
relative viability ([21]; first compound 2.53 µM): 0.473
relative viability ([22]; first compound 0.08 µM): 0.649
relative viability ([22]; first compound 0.253 µM): 0.533
relative viability ([22]; first compound 0.8 µM): 0.576
relative viability ([22]; first compound 2.53 µM): 0.557
relative viability ([23]; first compound 0.08 µM): 0.515
relative viability ([23]; first compound 0.253 µM): 0.334
relative viability ([23]; first compound 0.8 µM): 0.436
relative viability ([23]; first compound 2.53 µM): 0.3
